We go through 17 molecules from US8759334B2, “Compounds useful for the treatment of metabolic and inflammatory diseases” (Galapagos NV, priority 2011, dated 2014).

Type in all cases: cell-based
Assay [1] addresses T1, GPR43 (Homo sapiens, UniProt O15552).
T1 construct: expressed in transfected cells
T1 sequence (O15552 1-330): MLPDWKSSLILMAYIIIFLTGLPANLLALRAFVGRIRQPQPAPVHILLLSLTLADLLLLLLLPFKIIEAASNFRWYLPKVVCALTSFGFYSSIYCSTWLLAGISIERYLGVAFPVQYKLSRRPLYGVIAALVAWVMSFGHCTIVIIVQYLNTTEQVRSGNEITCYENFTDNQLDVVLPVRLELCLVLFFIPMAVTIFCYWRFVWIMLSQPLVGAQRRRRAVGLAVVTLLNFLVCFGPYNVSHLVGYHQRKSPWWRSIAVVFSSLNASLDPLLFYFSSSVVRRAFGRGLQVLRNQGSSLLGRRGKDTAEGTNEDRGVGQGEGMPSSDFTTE
The assay can be described thus: Calcium mobilization assay with probenecid. Conditions: GPR43 stably expressing cells; triggered with sodium acetate at EC80; 2.5 mM probenecid; read-out: GPR43 assay with probenicid IC50. The essentials: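 Cells stably expressing GPR43 plated overnight at 37 °C, then loaded 2 h with Calcium 4 dye plus 2.5 mM probenecid. […]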
In general terms: Calcium flux is commonly read through the fluorescence of an indicator in the cells.

Another assay concerns human neutrophils. Briefly: Neutrophil migration assay. As to conditions: neutrophils from human buffy coat, migration towards sodium acetate, read-out: human neutrophil migration inhibition EC50. As to the method:
G Protein-Coupled Receptor 43 (GPR43) was described as an essential player in the process of neutrophil recruitment during intestinal inflammation.
The effect of agonists or antagonists for GPR43 can therefore be assayed in a neutrophil migration test. In the neutrophil migration assay, neutrophils, isolated from buffy coats from human volunteers, are treated with a compound for 30 minutes. Subsequently, the neutrophils are transferred to the upper wells of a Corning HTS transwell 96 permeable support system, of which the lower wells are filled with a sodium acetate solution.
The ACD buffer consists of 140 mM citric acid, 200 mM sodium citrate and 220 mM dextrose. The 6% dextran/0.9% NaCl solution consists of 15 g dextran T2000 and 2.25 g NaCl dissolved in 250 mL H2O.
A human buffy coat is diluted with an equal volume of ice cold DPBS. 20 mL of the diluted buffy coat is gently mixed with 4 mL of ACD buffer. Then, 12 mL of the 6% dextran/0.9% NaCl solution is added to the mixture and the samples are inverted gently up to 20 times. The total volume is transferred to a new recipient and incubated at room temperature for 1 h for complete separation of the two phases to occur. The yellowish supernatant is then transferred to a clean centrifugation tube and centrifuged for 12 minutes at 1300 rpm and 4° C. After centrifugation, the supernatant is discarded and the remaining cell pellet is rapidly resuspended in 12 mL of ice-cold H2O for red blood cell lysis to occur. After 20 seconds, 4 mL of ice-cold 0.6 M KCl is added. Samples are mixed carefully and centrifuged for 6 minutes at 1300 rpm, 4° C. The supernatant is discarded and the red blood cell lysis procedure is repeated one more time. […] After centrifugation for 12 min at 1300 rpm, 4° C., the supernatant is removed and the cell pellet, containing the neutrophils, is resuspended in 25 mL chemotaxis buffer.
A cell suspension of 8.9×10^6 cells per milliliter is prepared. 20 μL of compound solution in chemotaxis buffer is added to 180 μl cell suspension. The mixture is incubated at 37° C. for 30 minutes with Intermediate resuspension of the cells after 15 minutes. […] The receiver well of the transwell system is then filled with 200 μL chemotaxis buffer containing compound and chemotactic agent (sodium acetate). After incubation at 37° C. in 5% CO2 for 1 h, the upper plate of the transwell system is removed and the cell suspension in the receiver plate is transferred to a 96-well V-bottom plate. 50 μL of DPBS is added to the receiver plate to prevent remaining cells from drying out. The V-bottom plate is centrifuged for 6 minutes at 1500 rpm. The supernatant is removed and the cells are resuspended in 50 μL DPBS. The cells are then transferred back to the receiver plate of the transwell system. […] The plate is incubated for 10 minutes in the dark, while shaking. 170 μL of cell lysate is then transferred to a white 96-well plate and luminescence is measured. The detected luminescent signal is considered as linearly related to the number of migrated cells.

Assay [2] concerns the target T1, GPR43. The assay can be described thus: Calcium mobilization assay without probenecid. Conditions: GPR43 stably expressing cells, triggered with sodium acetate at EC80, read-out: GPR43 assay without probenicid IC50. The essentials:
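In GPR43-expressing cells loaded with a Calcium 4 dye, antagonism was tested by a 15 min compound preincubation at 37 °C, then a sodium acetate challenge at EC80, with Ca-flux read on injection. For agonism, Ca-flux was recorded directly on compound injection.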

By IC50 is commonly meant the midpoint of a concentration-inhibition curve. With `Cc1cc(C)cc(CC(=O)N2CCC2(C)C(=O)N(CCCC(=O)O)Cc2ccc3cn[nH]c3c2)c1` (centres unmarked) [Compound 123, 4-[{1-[2-(3,5-Dimethyl-phenyl)-acetyl]-2-methyl-azetidine-2-carbonyl}-(1H-indazol-6-ylmethyl)-amino]-butyric acid], at GPR43 [1], the IC50 fell in the range of 101 to 500 nM. In the assay with human neutrophils, the EC50 was in the range of 0.01 to 100 nM.

As to `Cc1cc(C)cc(CC(=O)N2CCC2(C)C(=O)N(CCCC(N)=O)Cc2ccc(Cl)cc2)c1` (centres unmarked) [Compound 90, 1-[2-(3,5-Dimethyl-phenyl)-acetyl]-2-methyl-azetidine-2-carboxylic acid (3-carbamoyl-propyl)-(4-chloro-benzyl)-amide], the half-maximal inhibitory concentration (IC50) was 0.01 to 100 nM at GPR43 [2] and 101 to 500 nM on GPR43 [1]. In addition, in the assay on human neutrophils, the EC50 was in the range of 0.01 to 100 nM.

Consider `Cc1cc(C)cc(CC(=O)N2CCC2(C)C(=O)N(CCCC(=O)N2CCOCC2)Cc2ccc(Cl)cc2)c1` (centres unmarked) [Compound 122, 1-[2-(3,5-Dimethyl-phenyl)-acetyl]-2-methyl-azetidine-2-carboxylic acid (4-chloro-benzyl)-(4-morpholin-4-yl-4-oxo-butyl)-amide], for which the IC50 on GPR43 [1] is 101 to 500 nM. The EC50 in the assay on human neutrophils lay within 101 to 500 nM.

In the case of `CC1(C(=O)N(CCCC(=O)O)Cc2ccc3ccoc3c2)CCN1C(=O)Cc1csc2ccccc12` (centres unmarked) [Compound 131, 4-{[1-(2-Benzo[b]thiophen-3-yl-acetyl)-2-methyl-azetidine-2-carbonyl]-benzofuran-6-ylmethyl-amino}-butyric acid], the concentration for half-maximal inhibition (IC50) on GPR43 [1] lay in the range of 0.01 to 100 nM. Moreover, the EC50 in the assay on human neutrophils lay within 101 to 500 nM.

For the molecule `CC1(C(=O)N(CC(=O)O)Cc2ccc(Cl)cc2)CCN1C(=O)Cc1csc2ccccc12` (centres unmarked) [Compound 61, [[1-(2-Benzo[b]thiophen-3-yl-acetyl)-2-methyl-azetidine-2-carbonyl]-(4-chloro-benzyl)-amino]-acetic acid], the concentration for half-maximal inhibition (IC50) at GPR43 [2] and at GPR43 [1] was 0.01 to 100 nM in each case. The EC50 in the assay on human neutrophils was 0.01 to 100 nM.

In the case of `CC1(C(=O)N(CCCC(=O)O)Cc2ccc3cn[nH]c3c2)CCN1C(=O)c1csc2ccccc12` (centres unmarked) [Compound 157, 4-[[1-(Benzo[b]thiophene-3-carbonyl)-2-methyl-azetidine-2-carbonyl]-(1H-indazol-6-ylmethyl)-amino]-butyric acid], the half-inhibitory concentration (IC50) at GPR43 [1] is 101 to 500 nM. Besides, the EC50 in the assay on human neutrophils lay in the range of 0.01 to 100 nM.

Regarding `CC1(C(=O)N(CCCC(=O)O)Cc2ccc(Cl)cc2)CCN1C(=O)Cc1csc2ccccc12` (centres unmarked) [Compound 89, 4-[[1-(2-Benzo[b]thiophen-3-yl-acetyl)-2-methyl-azetidine-2-carbonyl]-(4-chloro-benzyl)-amino]-butyric acid], the 50% inhibitory concentration (IC50) on GPR43 [2] and on GPR43 [1] was 0.01 to 100 nM throughout. In addition, in the assay with human neutrophils, the EC50 lay within 0.01 to 100 nM.

As to `Cc1cc(C)cc(CC(=O)N2CCC2(C)C(=O)N(Cc2ccc(Cl)cc2)Cc2cc(O)no2)c1` (centres unmarked) [Compound 132, 1-[2-(3,5-Dimethyl-phenyl)-acetyl]-2-methyl-azetidine-2-carboxylic acid (4-chloro-benzyl)-(3-hydroxy-isoxazol-5-ylmethyl)-amide], on GPR43 [1], the IC50 fell in the range of 0.01 to 100 nM. Also, the EC50 with human neutrophils lay within 101 to 500 nM.

In the case of `Cc1cc(C)cc(CC(=O)N2CCC2(C)C(=O)N(CC(=O)O)Cc2ccc3cn[nH]c3c2)c1` (centres unmarked) [Compound 110, [{1-[2-(3,5-Dimethyl-phenyl)-acetyl]-2-methyl-azetidine-2-carbonyl}-(1H-indazol-6-ylmethyl)-amino]-acetic acid], the IC50 at GPR43 [1] was in the range of 101 to 500 nM. The EC50 in the assay with human neutrophils was in the range of 101 to 500 nM.

As for `Cc1cc(C)cc(CC(=O)N2CCC2(C)C(=O)N(CC(=O)O)Cc2ccc3cc[nH]c3c2)c1` (centres unmarked) [Compound 96, [{1-[2-(3,5-Dimethyl-phenyl)-acetyl]-2-methyl-azetidine-2-carbonyl}-(1H-indol-6-ylmethyl)-amino]-acetic acid], the IC50 at GPR43 [2] and at GPR43 [1] was 101 to 500 nM each time. Also, the EC50 in the assay on human neutrophils was 0.01 to 100 nM.

In the case of `CC1(C(=O)N(CCCC(=O)O)Cc2ccc3cc[nH]c3c2)CCN1C(=O)Cc1coc2ccccc12` (centres unmarked) [Compound 137, 4-[[1-(2-Benzofuran-3-yl-acetyl)-2-methyl-azetidine-2-carbonyl]-(1H-indol-6-ylmethyl)-amino]-butyric acid], the IC50 at GPR43 [1] lay in the range of 0.01 to 100 nM. Besides, in the assay with human neutrophils, the EC50 lay within 0.01 to 100 nM.

Regarding `CC1(C(=O)N(CCCC(=O)O)Cc2ccc(Cl)cc2)CCN1C(=O)Cc1coc2ccccc12` (centres unmarked) [Compound 103, 4-[[1-(2-Benzofuran-3-yl-acetyl)-2-methyl-azetidine-2-carbonyl]-(4-chloro-benzyl)-amino]-butyric acid], the concentration for half-maximal inhibition (IC50) on GPR43 [1] lay within 101 to 500 nM. The EC50 in the assay with human neutrophils was 501 to 1000 nM.

For the molecule `Cc1cc(C)cc(CC(=O)N2CCC2(C)C(=O)N(CCCC(=O)O)Cc2ccc3cc[nH]c3c2)c1` (centres unmarked) [Compound 113, 4-[{1-[2-(3,5-Dimethyl-phenyl)-acetyl]-2-methyl-azetidine-2-carbonyl}-(1H-indol-6-ylmethyl)-amino]-butyric acid], at GPR43 [1], the IC50 was 0.01 to 100 nM. For the same molecule, the EC50 in the assay with human neutrophils fell in the range of 0.01 to 100 nM.

For the molecule `CC1(C(=O)N(CCCC(=O)O)Cc2ccc3cn[nH]c3c2)CCN1C(=O)Cc1csc2ccccc12` (centres unmarked) [Compound 130, 4-[[1-(2-Benzo[b]thiophen-3-yl-acetyl)-2-methyl-azetidine-2-carbonyl]-(1H-indazol-6-ylmethyl)-amino]-butyric acid], at GPR43 [1], the IC50 is 0.01 to 100 nM. The EC50 with human neutrophils is 101 to 500 nM.

For the molecule `Cc1cc(C)cc(CC(=O)N2CCC2(C)C(=O)N(C)Cc2ccc(CC(C)C)cc2)c1` (centres unmarked) [Compound 34, 1-[2-(3,5-Dimethyl-phenyl)-acetyl]-2-methyl-azetidine-2-carboxylic acid (4-isobutyl-benzyl)-methyl-amide], the IC50 on GPR43 [2] and at GPR43 [1] was over 1000 nM each time.

Take `Cc1cc(C)cc(CC(=O)N2CCC2(C)C(=O)N(CC(N)=O)Cc2ccc(Cl)cc2)c1` (centres unmarked) [Compound 75, 1-[2-(3,5-Dimethyl-phenyl)-acetyl]-2-methyl-azetidine-2-carboxylic acid carbamoylmethyl-(4-chloro-benzyl)-amide]: the IC50 on GPR43 [2] and at GPR43 [1] was 101 to 500 nM in each case.

Consider `CCOC(=O)CCCN(Cc1ccc(Cl)cc1)C(=O)C1(C)CCN1C(=O)Cc1csc2ccccc12` (centres unmarked) [Compound 87, 4-[[1-(2-Benzo[b]thiophen-3-yl-acetyl)-2-methyl-azetidine-2-carbonyl]-(4-chloro-benzyl)-amino]-butyric acid ethyl ester], for which the IC50 at GPR43 [2] and at GPR43 [1] was 501 to 1000 nM each time.
